Among the data in patent US10047105B2, “Gyrase inhibitors” (Merck Sharp & Dohme Corp., priority 2009, dated 2018) are MIC Spn52 and MIC, SA values, retold here.

≈ marks a conversion by molar mass, not a printed value.

One assay deals with S. pneumoniae ATCC 51916. Briefly: MIC, S. pneumoniae. The conditions noted are these: S. pneumoniae. The assay is classed as cell-based.
The test system of another assay is S. aureus ATCC 13709. Briefly: MIC, antibacterial potency, S. aureus. It is filed as cell-based. The conditions noted are these: S. aureus.

Compound `CCc1[nH]c2nc(Sc3ccc4c(N)ncnc4c3)nc(Oc3cncc(OC)c3)c2c1Cl` [700,687] yielded an MIC Spn52 in the assay with S. pneumoniae ATCC 51916 above 64 µg/mL. The same compound displayed an MIC, SA against S. aureus ATCC 13709 above 64 µg/mL.

`CCc1[nH]c2nc(Sc3cnc4nccnc4c3)nc(N3CCC[C@H]3COC)c2c1Cl` [700,688] registered an MIC Spn52 with S. pneumoniae ATCC 51916 of at most 0.5 µg/mL. This compound also displayed an MIC, SA against S. aureus ATCC 13709 of at most 0.5 µg/mL.

`CCc1[nH]c2nc(Sc3ccc4c(N)ncnc4c3)nc(N3CC4CNC4C3)c2c1Cl` (stereo not shown) [700,689] had an MIC Spn52 against S. pneumoniae ATCC 51916 of 8 µg/mL (≈ 17.7 µM). In the assay with S. aureus ATCC 13709, this compound showed an MIC, SA of 2 µg/mL (≈ 4.42 µM).

For the compound `CCOc1nc(Oc2ccc3nc(C)ccc3c2)nc2[nH]c(CC)c(Cl)c12.O=C(O)C(F)(F)F` [700,690], the MIC Spn52 with S. pneumoniae ATCC 51916 stood at 8 µg/mL. Also, the MIC, SA in the assay with S. aureus ATCC 13709 was above 64 µg/mL.

Take `CCOc1nc(Oc2ccc3ccncc3c2)nc2[nH]c(CC)c(Cl)c12.O=C(O)C(F)(F)F` [700,691]: the MIC Spn52 with S. pneumoniae ATCC 51916 is above 64 µg/mL. The compound further had an MIC, SA against S. aureus ATCC 13709 above 64 µg/mL.

In the assay on S. pneumoniae ATCC 51916, `CCc1[nH]c2nc(Sc3ccc4nc[nH]c(=O)c4c3)nc(N3CC(N)C3)c2c1Cl.O=C(O)C(F)(F)F` [700,694] returned an MIC Spn52 of 8 µg/mL. For the same compound, the MIC, SA with S. aureus ATCC 13709 turned out to be 2 µg/mL.

In the case of `CCc1[nH]c2nc(Sc3ccc4cc(C(=O)N5CC[C@@H](N)C5)cnc4c3)nc(N3CC[C@@H](N)C3)c2c1Cl` [700,695], the MIC Spn52 with S. pneumoniae ATCC 51916 was 32 µg/mL (≈ 59.6 µM). Besides, the MIC, SA in the assay on S. aureus ATCC 13709 came out at 16 µg/mL (≈ 29.8 µM).

For `CCc1[nH]c2nc(Sc3cnc4[nH]c(C(F)(F)F)nc4c3)nc(N3CC[C@@H](N)C3)c2c1Cl` [700,696], in the assay with S. pneumoniae ATCC 51916, the MIC Spn52 stood at 16 µg/mL (≈ 33.1 µM). The compound also registered an MIC, SA in the assay on S. aureus ATCC 13709 above 64 µg/mL.

Turning to `CCc1[nH]c2nc(Sc3ccc4cc(C(=O)N[C@H]5CCOC5=O)cnc4c3)nc(N3CC[C@@H](N)C3)c2c1Cl` [700,697], the MIC Spn52 with S. pneumoniae ATCC 51916 is 8 µg/mL (≈ 14.5 µM). The compound further came in with an MIC, SA against S. aureus ATCC 13709 of 4 µg/mL (≈ 7.25 µM).

As for `CCc1[nH]c2nc(Sc3ccc4cc(C(=O)OC)cnc4c3)nc(N3CC[C@@H](N)C3)c2c1Cl` [700,698], in the assay on S. pneumoniae ATCC 51916, the MIC Spn52 came out at 8 µg/mL (≈ 16.6 µM). In the assay on S. aureus ATCC 13709, this compound gave an MIC, SA of at most 0.5 µg/mL.

In the assay with S. pneumoniae ATCC 51916, `CCOc1nc(Oc2ccc3[nH]ccc3c2)nc2[nH]c(CC)c(Cl)c12.O=C(O)C(F)(F)F` [700,699] registered an MIC Spn52 of 64 µg/mL. The compound further registered an MIC, SA in the assay with S. aureus ATCC 13709 of 2 µg/mL.

Compound `CCc1[nH]c2nc(Sc3cnc4nccnc4c3)nc(N3CCC(N4CCN(C)CC4)C3)c2c1Cl.O=C(O)C(F)(F)F.O=C(O)C(F)(F)F` (stereo not shown) [700,700] displayed an MIC Spn52 with S. pneumoniae ATCC 51916 of 8 µg/mL. Moreover, the MIC, SA in the assay with S. aureus ATCC 13709 was 4 µg/mL.

Regarding `CCOc1nc(Nc2cncnc2)nc2[nH]c(CC)c(Br)c12.O=C(O)C(F)(F)F` [700,701], in the assay with S. pneumoniae ATCC 51916, the MIC Spn52 was 8 µg/mL. This compound also registered an MIC, SA against S. aureus ATCC 13709 of 1 µg/mL.

In the assay with S. pneumoniae ATCC 51916, `CCOc1nc(Nc2cncnc2)nc2[nH]c(CC)c(Cl)c12.O=C(O)C(F)(F)F` [700,702] registered an MIC Spn52 of 16 µg/mL. The MIC, SA in the assay on S. aureus ATCC 13709 is 2 µg/mL.

In the assay on S. pneumoniae ATCC 51916, `CCc1[nH]c2nc(Sc3ccc4cc(C(=O)O)cnc4c3)nc(N3CC[C@@H](N)C3)c2c1Cl` [700,705] had an MIC Spn52 above 64 µg/mL. In the assay on S. aureus ATCC 13709, the MIC, SA was above 64 µg/mL.

`CCc1[nH]c2nc(Sc3cnc4cccnc4c3)nc(N3CC(C4(N)CC4)C3)c2c1Cl` [700,706] returned an MIC Spn52 in the assay with S. pneumoniae ATCC 51916 of 2 µg/mL (≈ 4.42 µM). The MIC, SA against S. aureus ATCC 13709 is 1 µg/mL (≈ 2.21 µM).

In the assay on S. pneumoniae ATCC 51916, `CCc1[nH]c2nc(Sc3cnc4nccnc4c3)nc(N3CC(C4(N)CC4)C3)c2c1Cl` [700,707] displayed an MIC Spn52 of 4 µg/mL (≈ 8.83 µM). The MIC, SA with S. aureus ATCC 13709 was 2 µg/mL (≈ 4.42 µM).

Compound `CCc1[nH]c2nc(Sc3ccc4nc(C)cc(C(=O)O)c4c3)nc(N3CC[C@@H](N)C3)c2c1Cl` [700,708, (R)-6-(4-(3-aminopyrrolidin-1-yl)-5-chloro-6-ethyl-7H-pyrrolo[2,3-d]pyrimidin-2-ylthio)-2-methylquinoline-4-carboxylic acid] had an MIC Spn52 in the assay on S. pneumoniae ATCC 51916 above 64 µg/mL. Also, the MIC, SA with S. aureus ATCC 13709 came to 32 µg/mL (≈ 66.3 µM).

Turning to `CCc1[nH]c2nc(Sc3ccc4nc[nH]c(=O)c4c3)nc(N3CC[C@@H](N)C3)c2c1Cl` [700,710], the MIC Spn52 in the assay with S. pneumoniae ATCC 51916 was 8 µg/mL (≈ 18.1 µM). For the same compound, the MIC, SA in the assay with S. aureus ATCC 13709 was determined as 1 µg/mL (≈ 2.26 µM).

As for `CCc1[nH]c2nc(Sc3ccc4c(c3)C(=O)NC4)nc(N3CC[C@@H](N)C3)c2c1Cl` [700,711], the MIC Spn52 against S. pneumoniae ATCC 51916 turned out to be 8 µg/mL (≈ 18.7 µM). Moreover, in the assay with S. aureus ATCC 13709, the MIC, SA is 1 µg/mL (≈ 2.33 µM).

`CCc1[nH]c2nc(Sc3cnc4ncc(=O)[nH]c4c3)nc(N3CC[C@@H](N)C3)c2c1Cl` [700,712] came in with an MIC Spn52 in the assay on S. pneumoniae ATCC 51916 above 64 µg/mL. The MIC, SA against S. aureus ATCC 13709 was 8 µg/mL (≈ 18.1 µM).

`CCc1[nH]c2nc(Sc3cnc4cccnc4c3)nc(N3CC(NC)C3)c2c1Cl` [700,713]: the MIC Spn52 in the assay with S. pneumoniae ATCC 51916 was 2 µg/mL (≈ 4.7 µM). In the assay on S. aureus ATCC 13709, this compound registered an MIC, SA of 1 µg/mL (≈ 2.35 µM).

As to `CCc1[nH]c2nc(Sc3cnc4nccnc4c3)nc(N3CC(NC)C3)c2c1Cl` [700,714], the MIC Spn52 in the assay on S. pneumoniae ATCC 51916 is 4 µg/mL (≈ 9.37 µM). Moreover, the MIC, SA in the assay on S. aureus ATCC 13709 is 2 µg/mL (≈ 4.68 µM).

In the assay on S. pneumoniae ATCC 51916, `CCc1[nH]c2nc(Sc3ccc4cc(C#N)cnc4c3)nc(N3CC[C@@H](N)C3)c2c1Cl` [700,715] yielded an MIC Spn52 of 1 µg/mL (≈ 2.22 µM). The same compound returned an MIC, SA with S. aureus ATCC 13709 of at most 0.5 µg/mL.

The compound `CCc1[nH]c2nc(Sc3ccc4cc(C#N)cnc4c3)nc(N3CC(CN)C3)c2c1Cl` [700,716] displayed an MIC Spn52 with S. pneumoniae ATCC 51916 of 2 µg/mL (≈ 4.44 µM). The MIC, SA with S. aureus ATCC 13709 came out at 1 µg/mL (≈ 2.22 µM).

Turning to `CCc1[nH]c2nc(Sc3ccc4c(N)nc(C)nc4c3)nc(N3CC[C@@H](N)C3)c2c1Cl` [700,717], the MIC Spn52 in the assay with S. pneumoniae ATCC 51916 amounted to 4 µg/mL (≈ 8.79 µM). In the assay with S. aureus ATCC 13709, this compound returned an MIC, SA of 2 µg/mL (≈ 4.4 µM).
